# Data taken from patent publication US7595401B2, “Therapeutic compounds and their use in cancer” (Myriad Pharmaceuticals, Inc., priority 2006, dated 2009).
# System: purified human Hsp90
# Test: Binding Assay: fluorescence polarization with BODIPY-labeled geldanamycin
# Details: 5 μM compound, BODIPY-GM 10 nM, Hsp90 30 nM
# Method in brief: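 Fluorescence polarization competition with BODIPY-geldanamycin (10 nM final) and human Hsp90 (30 nM final) in HEPES-KOH pH 7.3 buffer with molybdate, NP-40, DTT; 2% DMSO, overnight at room temperature. Read 485/530 nm; percent inhibition from mP normalized to DMSO controls, fluorescent-compound points excluded.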
row,SMILES,% Inhibition at 5 μM Compound Concentration
1,"Nc1ncn(CCC2CCN(S(=O)(=O)C(F)(F)F)CC2)c2nc(Sc3cc4c(cc3Br)OCO4)nc1-2 [Example 388, 8-[(6-Bromo-1,3-benzodioxol-5-yl)thio]-3-(2-{1-[(trifluoromethyl)sulfonyl]piperidin 4-yl}ethyl)-3H-purin-6-amine]",13%
2,"COc1ccc(OC)c(Sc2nc3c(N)ncn(CCc4c(F)cccc4Cl)c-3n2)c1 [Example 123, 3-[2-(2-chloro-6-fluoro-phenyl)-ethyl]-8-(2,5-dimethoxy-phenylsulfanyl)-3H-purine-6-ylamine]",0%
3,"Nc1ncn(CCC2CCN(C=O)CC2)c2nc(Sc3cc(OCc4ccccc4)c(OCc4ccccc4)cc3Br)nc1-2 [Example 554, 4-[2-(6-Amino-8-{[4,5-bis (benzyloxy)-2-bromophenyl]thio}-3 H-purin-3-yl)ethyl]piperidine-1-carbaldehyde]",0.00%
4,"Nc1ncn(CCc2cccs2)c2nc(Sc3cc4c(cc3Br)OCO4)nc1-2 [Example 204, 8-(6-bromo-benzo[1,3]dioxol-5-ylsulfanyl)-3-(2-thiophen-2-yl-ethyl)-3H-purin-6-ylamine]",11%
5,"COc1ccc(CCn2cnc(N)c3nc(Sc4cc5c(cc4Br)OCO5)nc2-3)cc1OC [Example 297, 8-[(6-Bromo-1,3-benzodioxol-5-yl)thio]-3-[2-(3,4-dimethoxyphenyl)ethyl]-3H-purin-6-amine]",8.0%
6,"COc1ccc(Sc2nc3c(N)ncn(CCc4ccccc4)c-3n2)cc1Cl [Example 241, 8-[(3-Chloro-4-methoxyphenyl)thio]-3-(2-phenylethyl)-3H-purin-6-amine]",0%

# Same assay, conditions: BODIPY-GM 10 nM, Hsp90 30 nM
row,SMILES,IC50
1,"CC12CCC(CC(CCn3c(Sc4cc5c(cc4Br)OCO5)nc4c(N)ncnc43)C1)O2 (centres unmarked) [Example 607, 8-[(6-Bromo-1,3-benzodioxol-5-yl)thio]-9-{2-[1-methyl-8-oxabicyclo[3.2.1]oct-3-yl]ethyl}-9 H-purin-6-amine]",62 nM
2,"COc1ccc(OC)c(Sc2nc3c(N)ncnc3n2CCc2cccc(Br)c2)c1 [Example 77, 9-[2-(3-Bromo-phenyl)-ethyl]-8-(2,5-dimethoxy-phenylsulfanyl)-9H-purin-6-ylamine]",1900 nM
3,"COc1ccc(OC)c(Sc2nc3c(N)ncnc3n2CCc2ccc(O)cc2)c1 [Example 75, 4-{2-[6-Amino-8-(2,5-dimethoxy-phenylsulfanyl)-purin-9-yl]-ethyl}-phenol]",2900 nM
4,"CC(C)CN1CCCCC1CCn1c(Sc2cc3c(cc2Br)OCO3)nc2c(N)ncnc21 (centres unmarked) [Example 447, 8-[(6-Bromo-1,3-benzodioxol-5-yl)thio]-9-[2-(1-isobutylpiperidin-2-yl)ethyl]-9H-purin-6-amine]",210 nM
5,"COc1ccc(OC)c(Sc2nc3c(N)ncnc3n2CCC2CCCN(C(=O)OC(C)(C)C)C2)c1 (centres unmarked) [Example 347, tert-Butyl 3-(2-{6-amino-8-[(2,5-dimethoxyphenyl)thio]-9H-purin-9-yl}ethyl)piperidine-1-carboxylate]",2500 nM
6,"CC(C)(C)C(=O)N1CCN(CCn2c(Sc3cc4c(cc3Br)OCO4)nc3c(N)ncnc32)CC1 [Example 633, 8-[(6-Bromo-1,3-benzodioxol-5-yl)thio]-9-{2-[4-(2,2-dimethylpropanoyl)piperazin-1-yl]ethyl}-9 H-purin-6-amine]",1500 nM
7,"CC(C)CN1CCC(CCn2c(Sc3cc4c(cc3Br)OCO4)nc3c(N)ncnc32)CC1 [Example 453, 8-[(6-Bromo-1,3-benzodioxol-5-yl)thio]-9-[2-(1-isobutylpiperidin-4-yl)ethyl]-9H-purin-6-amine]",700 nM
8,"CC(C)(C)OC(=O)N1C=C(CCn2c(Sc3cc4c(cc3Br)OCO4)nc3c(N)ncnc32)CCC1 [Example 462, tert-Butyl 5-(2-{6-amino-8-[(6-bromo-1,3-benzodioxol-5-yl)thio]-9H-purin-9-yl}ethyl)-3,4-dihydropyridine-1(2 H)-carboxylate]",7900 nM
